Laboratory results as given in ChEMBL document CHEMBL1201862, “PubChem BioAssay data set” (2004).
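1) Cells in 96-well plates. 2) Compound, 48 h, 5 concentrations. 3) Linear interpolation between surrounding doses. 4) Unreached endpoint = highest concentration. GI50: concentration for 50% inhibition of growth.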 Active and inactive are the calls of the source. Rule as the data show it: active = GI50 up to about 1.1 µM and inactive = higher.

How the values were obtained:
Assay in all cases: NCI tumour cell line growth inhibition, 48 h
[1] = tested on: SK-MEL-2
[2] = tested on: HCT-15
[3] = tested on: HOP-62
[4] = tested on: NCI-H226
[5] = tested on: OVCAR-5
[6] = tested on: MDA-MB-435
[7] = tested on: SF-539
[8] = tested on: OVCAR-4
[9] = tested on: ACHN
[10] = tested on: PC-3
[11] = tested on: HOP-92
[12] = tested on: DU-145
[13] = tested on: LOX IMVI
[14] = tested on: HCT-116
[15] = tested on: IGROV-1
[16] = tested on: SF-268
[17] = tested on: OVCAR-3
[18] = tested on: A549
[19] = tested on: SR
[20] = tested on: MOLT-4

Row | Compound | GI50 [1] | GI50 [2] [µM] | GI50 [3] | GI50 [4] | GI50 [5] | GI50 [6] | GI50 [7] | GI50 [8] | GI50 [9] | GI50 [10] | GI50 [11] | GI50 [12] | GI50 [13] | GI50 [14] | GI50 [15] | GI50 [16] | GI50 [17] | GI50 [18] | GI50 [19] | GI50 [20]
1 | CCC(=N\NC(N)=S)/C(C)=N/O | > 100 µM (inactive) | > 100 | > 100 µM (inactive) | > 100 µM (inactive) | > 100 µM (inactive) | > 100 µM (inactive) | > 100 µM (inactive) | > 100 µM (inactive) | > 100 µM (inactive) | > 100 µM (inactive) | > 100 µM (inactive) | > 100 µM (inactive) | > 100 µM (inactive) | > 100 µM (inactive) | > 100 µM (inactive) | > 100 µM (inactive) | > 100 µM (inactive) | > 100 µM (inactive) | – | –
2 | CCOC(=O)C1CCC/C1=N\NC(=N)N.Cc1cc(O)c(C(C)C)cc1S(=O)(=O)O (stereo unspecified) | > 100 µM (inactive) | > 100 | > 100 µM (inactive) | > 100 µM (inactive) | > 100 µM (inactive) | > 100 µM (inactive) | > 100 µM (inactive) | > 100 µM (inactive) | > 100 µM (inactive) | > 100 µM (inactive) | – | > 100 µM (inactive) | > 100 µM (inactive) | > 100 µM (inactive) | > 100 µM (inactive) | > 100 µM (inactive) | > 100 µM (inactive) | > 100 µM (inactive) | > 100 µM (inactive) | > 100 µM (inactive)
3 | CCOC(=O)C(C(=O)OCC)C1C=CCC2c3ccccc3COCC21 (stereo unspecified) | 41.4 µM (inactive) | 40 | > 100 µM (inactive) | 73.8 µM (inactive) | > 100 µM (inactive) | 36.9 µM (inactive) | > 100 µM (inactive) | 28.6 µM (inactive) | 40.2 µM (inactive) | 42.6 µM (inactive) | > 100 µM (inactive) | > 100 µM (inactive) | 44.2 µM (inactive) | 41.1 µM (inactive) | 75.5 µM (inactive) | 67.5 µM (inactive) | 65.5 µM (inactive) | 66.5 µM (inactive) | – | 40.9 µM (inactive)
4 | CC1=CC2=C(C#N)C(=O)OC2(C)C(c2ccccc2)C1 (stereo unspecified) | > 100 µM (inactive) | > 100 | > 100 µM (inactive) | > 100 µM (inactive) | > 100 µM (inactive) | > 100 µM (inactive) | > 100 µM (inactive) | 87.7 µM (inactive) | > 100 µM (inactive) | 68.5 µM (inactive) | 87.5 µM (inactive) | > 100 µM (inactive) | > 100 µM (inactive) | > 100 µM (inactive) | 6.04 µM (inactive) | > 100 µM (inactive) | > 100 µM (inactive) | > 100 µM (inactive) | – | > 100 µM (inactive)
5 | COc1c2c(cc3c1C(=O)c1c(O)cccc1C3=O)CC(O)CC2 (stereo unspecified) | > 100 µM (inactive) | 35.8 | 19.3 µM (inactive) | 54.5 µM (inactive) | > 100 µM (inactive) | > 100 µM (inactive) | 28.8 µM (inactive) | > 100 µM (inactive) | 23.6 µM (inactive) | 67.9 µM (inactive) | 18.7 µM (inactive) | 57.7 µM (inactive) | > 100 µM (inactive) | 24.6 µM (inactive) | 85.5 µM (inactive) | – | > 100 µM (inactive) | > 100 µM (inactive) | – | > 100 µM (inactive)
6 | N#Cc1cccc(Nc2ccccc2SSc2ccccc2Nc2cccc(C#N)c2)c1 | > 10 µM (inactive) | 10.4 | 11.9 µM (inactive) | 10.3 µM (inactive) | 17.5 µM (inactive) | 8.69 µM (inactive) | 8.79 µM (inactive) | 10.7 µM (inactive) | 8.73 µM (inactive) | 4.82 µM (inactive) | 7.89 µM (inactive) | 19 µM (inactive) | 2.73 µM (inactive) | 9.06 µM (inactive) | 8.65 µM (inactive) | 4.93 µM (inactive) | 9.12 µM (inactive) | 11.3 µM (inactive) | – | 3.13 µM (inactive)
7 | O=C(O)CC(C(=O)O)c1ccccc1[N+](=O)[O-] (stereo unspecified) | > 100 µM (inactive) | > 100 | > 100 µM (inactive) | > 100 µM (inactive) | > 100 µM (inactive) | > 100 µM (inactive) | – | > 100 µM (inactive) | > 100 µM (inactive) | > 100 µM (inactive) | > 100 µM (inactive) | > 100 µM (inactive) | > 100 µM (inactive) | > 100 µM (inactive) | > 100 µM (inactive) | > 100 µM (inactive) | > 100 µM (inactive) | > 100 µM (inactive) | – | –
8 | c1ccc2nc(CCC3CCCCN3)ccc2c1 (stereo unspecified) | > 100 µM (inactive) | > 100 | 85.5 µM (inactive) | > 100 µM (inactive) | > 100 µM (inactive) | 97.7 µM (inactive) | – | > 100 µM (inactive) | > 100 µM (inactive) | > 100 µM (inactive) | > 100 µM (inactive) | > 100 µM (inactive) | > 100 µM (inactive) | > 100 µM (inactive) | 69.8 µM (inactive) | > 100 µM (inactive) | – | > 100 µM (inactive) | 68.5 µM (inactive) | –
